Data set [1] concerns liver triglycerides. Briefly: Hepatic triglyceride content and steatosis in ZDF rats, oral. As to conditions: orally 28 days. It is filed as in vivo. As to the method: Normal rats were chronically infused with Compound 7 for 7 days. Liver triglycerides were analyzed following lipid extraction by the Bligh Dyer method (Bligh E G and Dyer W J, A rapid method of total lipid extraction and purification. Can J Med. Sci. 1959 (August); 37(8):911-7, incorporated herein by reference). Total triglycerides were analyzed in the liver extracts by an enzymatic assay (Thermo Electron Corporation). Total lipid was normalized to initial liver weight and triglyceride content was normalized to liver weight. […] There was a 4% reduction in liver triglycerides for this group and the results were not statistically significant.
In other experiments, Compound 7 was orally administered to ZDF rats for 28 days. Liver triglycerides were analyzed as described above. Total liver triglycerides were reduced in the treated animals 42% in the 2.5 mg/kg/d group. […] The hepatic steatosis is a well known and described phenomenon for the ZDF rat, and therefore not attributable to vehicle treatment.

Data set [2] is described as follows: Liver distribution following oral administration. It is filed as in vivo. The following applies: liver levels of Compound 7, normal rats, oral 10 mg/kg. As to the method: Liver levels of Compound 7 were assessed in normal rats following oral administration of the HepDirect™ or other prodrugs. The levels were used to estimate potential efficacy. Liver levels were assessed by LC-MS using the 363.3/63.0 peak area to estimate levels of Compound 7 generated by orally administered prodrugs.

Data set [3] concerns plasma cholesterol. The data set is described as follows: Cholesterol lowering in hypercholesterolemic rats. It is filed as in vivo.
Data set [4] concerns serum cholesterol. The data set is described as follows: Subacute study in cholesterol-fed rats, IP: serum cholesterol. It is filed as in vivo. As to conditions: IP once-a-day for seven days.
Data set [5] relates to thyroid stimulating hormone (TSH). The data set is described as follows: Circulating TSH in rats (cholesterol-fed, ZDF). In kind it is in vivo. As to conditions: ZDF rats, 50 mg/kg/d for 28 days. As to the method:
(§1) Methods: mGPDH activity was analyzed in isolated mitochondria using 2-(4-iodophenyl)-3-(4-nitrophenyl)-5-phenyl tetrazolium chloride as the terminal electron acceptor (Gardner R S, Analytical Biochemistry 59:272 (1974)). Commercially available GPDH was used in each assay as a standard (Sigma, St. Louis, Mo.). Changes in levels of mRNA for liver and heart genes are analyzed using reverse transcriptase followed by real-time PCR analysis. The analysis is performed using an iCycler instrument (Biorad) and appropriate primers by means of standard methodology [e.g., Schwab D A et al. (2000) Life Sciences 66: 1683-94]. The amounts of mRNA are normalized to an internal control, typically, cyclophilin. Serum TSH is measured using an enzyme immunoassay (EIA) kit designed for rat TSH (Amersham Pharmacia Biotech, Arlington Heights, Ill.).
Another concern with synthetic thyromimetics is the suppression of the endogenous thyroid axis. Thyroid homeostasis is maintained by the action of thyroid releasing hormone (TRH) and thyroid stimulating hormone (TSH). […] Although this particular side effect has been noted, it has typically been treated with less concern than the cardiac safety issues. […] Therefore previous investigators have measured TSH levels when testing synthetic thyromimetics and have used a 30% decrease of TSH as the denominator in their therapeutic index calculations. […] Therefore, both compounds suppress TSH as doses lower than that required to decrease circulating cholesterol. […] However, 0.2 mg/kg/d of Compound 18 in 28 day treated ZDF rats, decreased TSH levels greater than 90%.

Data set [6] concerns heart mGPDH activity. The data set is described as follows: Subacute study in normal rats, continuous infusion: heart mGPDH activity. It is filed as in vivo, rats (Sprague-Dawley). As to conditions: continuous infusion 1 mg/kg/day.
Text: Efficacy endpoints include serum cholesterol, liver mitochondrial glycerol phosphate dehydrogenase (mGPDH) activity and the expression of relevant liver genes (e.g., the LDL-receptor, apoB, cpt-1, spot14 and apoAI). Safety parameters include heart weight, heart rate, heart mGPDH activity, the expression and key genes involved in cardiac structure and function (e.g., Serca2, HCN2, Kv1.5, MHCα, MHCβ, Alpha1c), and standard plasma chemistry analysis (liver enzymes, electrolytes, creatinine). Endocrine effects are monitored by analysis of serum thyroid stimulating hormone (TSH). [Taylor et al., Mol Pharmacol 52(3): 542-7 (1997); Weitzel et al., Eur J Biochem 268(14):4095-4103 (2001)]
as §1
Normal rats (Sprague-Dawley) were maintained on a standard diet. […] The compounds were brought up to an appropriate volume using PBS and BSA to maintain solubility within the pump. The compounds were chemically stable in the excipient at 37° C. for 7 days.
Values are expressed as percent of control. (Table 4)

For the compound `Cc1cc(OCP(=O)(O)O)cc(C)c1Cc1ccc(O)c(C(C)C)c1` [Compound 7, [3,5-dimethyl-4-(4′-hydroxy-3′-iso-propylbenzyl)phenoxy]methylphosphonic acid], the “microvesicular steatosis, histologic analysis of liver sections” value in data set [1] is on record as “dose dependent reduction in the microvesicular steatosis”. In addition, the “Liver Levels (ug/g) (10 mg/kg@1.5 h)” value in data set [2] is “Not Detected”. In data set [3] (Rattus norvegicus, ip, delivered i.p (0.2 mg/kg/d), percentage change from pre-dose cholesterol, read-out: % Cholesterol Lowering), the change in vivo at 0.2 mg/kg/day was -41.5%. Besides, the “efficacy in lowering cholesterol” value in data set [3] (another experiment, hypercholesterolemic rats) is “efficacious”. For the same compound, in data set [4], the “doses that significantly decreased serum cholesterol” value lay within 1 to 100 mg/kg/day. In addition, in data set [5], the TSH versus vehicle result was “no statistically significant difference from vehicle”. Also, the “Heart GPDH” value in data set [6] was 112% of control.

The values are drawn from patent US20090028925A1, “Novel Phosphinic Acid-Containing Thyromimetics” (priority 2005, published 2009).
